# Measurements: PMC5826766 (Molecular pharmaceutics, 2018)
# Target: hPHT1 (human peptide/histidine transporter 1, SLC15A4) (Homo sapiens, UniProt Q8N697, L14A/L15A/L318A/V319A)
# Assay: inhibition of MDP uptake in hPHT1mut cells at […], mock-subtracted
# Type: cell-based
# Details: read-out: % inhibition at 2 mM
# Chain of hPHT1 (human peptide/histidine transporter 1, SLC15A4) (Q8N697 whole entry L14A/L15A/L318A/V319A): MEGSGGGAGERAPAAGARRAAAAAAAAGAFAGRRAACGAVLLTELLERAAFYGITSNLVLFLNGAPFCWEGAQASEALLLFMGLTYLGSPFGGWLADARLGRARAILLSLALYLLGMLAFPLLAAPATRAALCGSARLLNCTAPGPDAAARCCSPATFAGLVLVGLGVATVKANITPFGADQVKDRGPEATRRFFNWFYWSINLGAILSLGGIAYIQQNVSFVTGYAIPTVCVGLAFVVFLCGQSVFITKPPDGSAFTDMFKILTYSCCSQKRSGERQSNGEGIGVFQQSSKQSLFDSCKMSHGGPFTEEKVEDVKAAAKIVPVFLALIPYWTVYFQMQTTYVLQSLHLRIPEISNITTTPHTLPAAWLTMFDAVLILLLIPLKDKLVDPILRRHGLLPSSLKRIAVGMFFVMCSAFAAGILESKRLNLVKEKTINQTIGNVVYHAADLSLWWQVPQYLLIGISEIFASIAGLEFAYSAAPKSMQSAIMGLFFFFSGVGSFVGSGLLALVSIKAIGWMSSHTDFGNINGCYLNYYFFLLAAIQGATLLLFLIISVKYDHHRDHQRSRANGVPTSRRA
row,Structure (SMILES),inhibition at 2000 µM [%]
1,CC1=C(C(=O)O)N2C(=O)[C@@H](NC(=O)[C@H](N)c3ccc(O)cc3)[C@H]2SC1 [cefadroxil],70 to 85
2,NCCCC[C@H](N[C@@H](CCc1ccccc1)C(=O)O)C(=O)N1CCC[C@H]1C(=O)O [lisinopril],70 to 85
3,C[C@H](CS)C(=O)N1CCC[C@H]1C(=O)O [captopril],70 to 85
4,CC1=C(C(=O)O)N2C(=O)[C@@H](NC(=O)[C@H](N)C3=CCC=CC3)[C@H]2SC1 [cephradine],70 to 85
